Where two headings read alike, the source gives them in different places.
Key:
Experiment in all cases: Kinase panel
Assay type in all cases: biochemical
[1] = target: CSK (Homo sapiens, UniProt P41240); settings: read-out: residual enzyme activity
Method in brief: (§1)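 Compounds were applied once, at 1 µM, to each kinase of a broad biochemical panel, and remaining enzyme activity was calculated. A kinase counted as inhibited if that remaining activity fell to 40% or below.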

[2] = target: CDK16/CYCLIN Y (PCTAIRE) (Homo sapiens, UniProt Q00536); settings: read-out: residual enzyme activity
Method in brief: as §1

[3] = target: PBK/TOPK (Homo sapiens, UniProt Q96KB5); settings: read-out: residual enzyme activity
Method in brief: as §1

[4] = target: TBK1 (Homo sapiens, UniProt Q9UHD2); settings: TBK1, 1 µM; read-out: residual enzyme activity
Method in brief: as §1

[5] = target: MAPKAPKS/PRAK (Homo sapiens, UniProt Q8IW41); settings: read-out: residual enzyme activity
Method in brief: as §1

[6] = target: MLCK/MYLK (Homo sapiens, UniProt Q15746); settings: read-out: residual enzyme activity
Method in brief: as §1

[7] = target: CAMK1D (Homo sapiens, UniProt Q8IU85); settings: read-out: residual enzyme activity
Method in brief: as §1

[8] = target: TXK (Homo sapiens, UniProt P42681); settings: read-out: residual enzyme activity
Method in brief: as §1

[9] = target: AKT1 (Homo sapiens, UniProt P31749); settings: AKT1, 1 µM; read-out: residual enzyme activity
Method in brief: as §1

[10] = target: PKD2/PRKD2 (Homo sapiens, UniProt Q9BZL6); settings: PKD2/PRKD2, 1 µM; read-out: residual enzyme activity
Method in brief: as §1

[11] = target: ALK5/TGFBR1 (Homo sapiens, UniProt P36897); settings: ALK5/TGFBR1, 1 µM; read-out: residual enzyme activity
Method in brief: as §1

[12] = target: PIM2 (Homo sapiens, UniProt Q9P1W9); settings: PIM2, 1 µM; read-out: residual enzyme activity
Method in brief: as §1

[13] = target: CDK2/CYCLIN A1 (Homo sapiens, UniProt P24941); settings: CDK2/Cyclin A1, 1 µM; read-out: residual enzyme activity
Method in brief: as §1

[14] = target: WNK3 (Homo sapiens, UniProt Q9BYP7); settings: WNK3, 1 µM; read-out: residual enzyme activity
Method in brief: as §1

[15] = target: CDK9/CYCLIN T1 (Homo sapiens, UniProt P50750); settings: CDK9/cyclin T1, 1 µM; read-out: residual enzyme activity
Method in brief: as §1

[16] = target: BRSK1 (Homo sapiens, UniProt Q8TDC3); settings: BRSK1, 1 µM; read-out: residual enzyme activity
Method in brief: as §1

[17] = target: CK1G1 (Homo sapiens, UniProt Q9HCP0); settings: read-out: residual enzyme activity
Method in brief: as §1

[18] = target: AKT2 (Homo sapiens, UniProt P31751); settings: AKT2, 1 µM; read-out: residual enzyme activity
Method in brief: as §1

[19] = target: CDK17/CYCLIN Y (PCTK2) (Homo sapiens, UniProt Q00537); settings: read-out: residual enzyme activity
Method in brief: as §1

[20] = target: CDC7/DBF4 (Homo sapiens, UniProt O00311); settings: CDC7/DBF4, 1 µM; read-out: residual enzyme activity
Method in brief: as §1

[21] = target: CDK5/P35 (Homo sapiens, UniProt Q00535); settings: read-out: residual enzyme activity
Method in brief: as §1

[22] = target: MINK/MINK1 (Homo sapiens, UniProt Q8N4C8); settings: MINK/MINK1, 1 µM; read-out: residual enzyme activity
Method in brief: as §1

[23] = target: PKCA (Homo sapiens, UniProt P17252); settings: read-out: residual enzyme activity
Method in brief: as §1

[24] = target: RON/MSTIR (Homo sapiens, UniProt Q04912); settings: read-out: residual enzyme activity
Method in brief: as §1

[25] = target: ZIPK/DAPK3 (Homo sapiens, UniProt O43293); settings: ZIPK/DAPK3, 1 µM; read-out: residual enzyme activity
Method in brief: as §1

[26] = target: MSK2/RPS6KA4 (Homo sapiens, UniProt O75676); settings: MSK2/RPS6KA4, 1 µM; read-out: residual enzyme activity
Method in brief: as §1

[27] = target: MNK1 (Homo sapiens, UniProt Q9BUB5); settings: MNK1, 1 µM; read-out: residual enzyme activity
Method in brief: as §1

[28] = target: ALK6/BMPR1B (Homo sapiens, UniProt O00238); settings: read-out: residual enzyme activity
Method in brief: as §1

[29] = target: BTK (Homo sapiens, UniProt Q06187); settings: read-out: residual enzyme activity
Method in brief: as §1

[30] = target: AURORA A (Homo sapiens, UniProt O14965); settings: read-out: residual enzyme activity
Method in brief: as §1

[31] = target: BRK (Homo sapiens, UniProt Q13882); settings: read-out: residual enzyme activity
Method in brief: as §1

[32] = target: SIK1 (Homo sapiens, UniProt P57059); settings: SIK1, 1 µM; read-out: residual enzyme activity
Method in brief: as §1

[33] = target: EGFR (Homo sapiens, UniProt P00533); settings: read-out: residual enzyme activity
Method in brief: as §1

[34] = target: RIPK4 (Homo sapiens, UniProt P57078); settings: RIPK4, 1 µM; read-out: residual enzyme activity
Method in brief: as §1

MSK2/RPS6KA4, sequence (O75676 whole entry): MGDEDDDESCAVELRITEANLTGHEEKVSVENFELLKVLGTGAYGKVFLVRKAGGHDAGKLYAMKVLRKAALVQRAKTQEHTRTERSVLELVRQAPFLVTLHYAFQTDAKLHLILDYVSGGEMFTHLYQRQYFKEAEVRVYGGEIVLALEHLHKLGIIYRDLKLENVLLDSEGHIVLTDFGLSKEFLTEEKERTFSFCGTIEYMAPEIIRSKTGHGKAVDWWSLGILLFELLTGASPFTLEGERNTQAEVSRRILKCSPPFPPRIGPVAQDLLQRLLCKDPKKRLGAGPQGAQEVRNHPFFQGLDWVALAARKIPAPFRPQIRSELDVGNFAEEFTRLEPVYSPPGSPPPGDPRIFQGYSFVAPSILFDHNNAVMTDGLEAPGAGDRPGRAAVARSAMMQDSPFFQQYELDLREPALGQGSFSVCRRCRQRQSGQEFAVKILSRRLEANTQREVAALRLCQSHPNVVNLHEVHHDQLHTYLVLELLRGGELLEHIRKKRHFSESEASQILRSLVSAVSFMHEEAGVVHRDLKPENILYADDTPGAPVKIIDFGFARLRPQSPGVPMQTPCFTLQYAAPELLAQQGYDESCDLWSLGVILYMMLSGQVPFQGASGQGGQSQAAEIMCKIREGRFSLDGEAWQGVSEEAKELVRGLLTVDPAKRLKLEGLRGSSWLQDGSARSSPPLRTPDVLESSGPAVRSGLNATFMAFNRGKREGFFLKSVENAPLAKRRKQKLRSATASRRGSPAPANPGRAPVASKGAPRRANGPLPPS
ZIPK/DAPK3, sequence (O43293 whole entry): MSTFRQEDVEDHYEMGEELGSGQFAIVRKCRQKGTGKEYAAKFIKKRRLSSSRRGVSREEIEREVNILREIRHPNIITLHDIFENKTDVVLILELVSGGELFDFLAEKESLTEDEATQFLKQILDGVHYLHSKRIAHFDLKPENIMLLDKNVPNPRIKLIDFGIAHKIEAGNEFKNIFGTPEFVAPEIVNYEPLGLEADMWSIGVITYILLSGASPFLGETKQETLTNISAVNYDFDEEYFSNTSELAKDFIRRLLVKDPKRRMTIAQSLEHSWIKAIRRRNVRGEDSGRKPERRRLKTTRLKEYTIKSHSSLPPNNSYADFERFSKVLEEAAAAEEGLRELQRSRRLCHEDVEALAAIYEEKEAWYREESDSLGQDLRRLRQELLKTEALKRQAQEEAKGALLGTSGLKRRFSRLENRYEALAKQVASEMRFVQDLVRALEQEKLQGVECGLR
ALK5/TGFBR1, sequence (P36897 34-503): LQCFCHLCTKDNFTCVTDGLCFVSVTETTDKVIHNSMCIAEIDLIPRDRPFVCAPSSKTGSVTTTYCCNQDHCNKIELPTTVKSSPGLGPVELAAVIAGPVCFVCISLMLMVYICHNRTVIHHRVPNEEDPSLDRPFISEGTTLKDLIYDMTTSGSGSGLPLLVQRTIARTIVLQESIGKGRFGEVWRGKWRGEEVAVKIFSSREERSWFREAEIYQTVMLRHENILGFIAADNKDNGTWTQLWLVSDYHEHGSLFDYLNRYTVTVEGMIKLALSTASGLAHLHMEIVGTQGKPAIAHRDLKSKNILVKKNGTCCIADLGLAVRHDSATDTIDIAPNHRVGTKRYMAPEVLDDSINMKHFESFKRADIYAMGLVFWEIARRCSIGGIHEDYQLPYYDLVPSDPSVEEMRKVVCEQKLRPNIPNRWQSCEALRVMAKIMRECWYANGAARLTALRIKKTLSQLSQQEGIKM
MAPKAPKS/PRAK, sequence (Q8IW41 whole entry): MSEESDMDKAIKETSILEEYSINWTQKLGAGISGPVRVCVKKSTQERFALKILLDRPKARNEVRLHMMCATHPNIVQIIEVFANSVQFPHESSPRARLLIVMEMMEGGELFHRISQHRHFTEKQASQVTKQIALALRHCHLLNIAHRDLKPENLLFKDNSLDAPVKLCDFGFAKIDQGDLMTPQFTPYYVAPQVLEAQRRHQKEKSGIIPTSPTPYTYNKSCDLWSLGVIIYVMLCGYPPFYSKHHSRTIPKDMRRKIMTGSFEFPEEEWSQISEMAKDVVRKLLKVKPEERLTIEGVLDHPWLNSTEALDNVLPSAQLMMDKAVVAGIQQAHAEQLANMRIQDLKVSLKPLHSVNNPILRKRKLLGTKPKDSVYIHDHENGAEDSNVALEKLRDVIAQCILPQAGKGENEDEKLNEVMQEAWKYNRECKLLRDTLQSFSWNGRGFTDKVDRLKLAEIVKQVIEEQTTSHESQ
PIM2, sequence (Q9P1W9 whole entry, species assumed): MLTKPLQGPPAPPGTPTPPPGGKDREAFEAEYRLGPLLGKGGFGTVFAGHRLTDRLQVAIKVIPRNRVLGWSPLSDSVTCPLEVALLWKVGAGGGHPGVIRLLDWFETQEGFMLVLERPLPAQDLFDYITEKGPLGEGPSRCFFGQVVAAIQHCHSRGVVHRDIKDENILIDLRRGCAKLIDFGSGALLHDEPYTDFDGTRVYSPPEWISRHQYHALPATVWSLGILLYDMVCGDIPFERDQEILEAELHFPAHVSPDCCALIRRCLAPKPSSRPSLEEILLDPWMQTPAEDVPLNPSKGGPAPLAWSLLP
RIPK4, sequence (P57078 whole entry, species assumed): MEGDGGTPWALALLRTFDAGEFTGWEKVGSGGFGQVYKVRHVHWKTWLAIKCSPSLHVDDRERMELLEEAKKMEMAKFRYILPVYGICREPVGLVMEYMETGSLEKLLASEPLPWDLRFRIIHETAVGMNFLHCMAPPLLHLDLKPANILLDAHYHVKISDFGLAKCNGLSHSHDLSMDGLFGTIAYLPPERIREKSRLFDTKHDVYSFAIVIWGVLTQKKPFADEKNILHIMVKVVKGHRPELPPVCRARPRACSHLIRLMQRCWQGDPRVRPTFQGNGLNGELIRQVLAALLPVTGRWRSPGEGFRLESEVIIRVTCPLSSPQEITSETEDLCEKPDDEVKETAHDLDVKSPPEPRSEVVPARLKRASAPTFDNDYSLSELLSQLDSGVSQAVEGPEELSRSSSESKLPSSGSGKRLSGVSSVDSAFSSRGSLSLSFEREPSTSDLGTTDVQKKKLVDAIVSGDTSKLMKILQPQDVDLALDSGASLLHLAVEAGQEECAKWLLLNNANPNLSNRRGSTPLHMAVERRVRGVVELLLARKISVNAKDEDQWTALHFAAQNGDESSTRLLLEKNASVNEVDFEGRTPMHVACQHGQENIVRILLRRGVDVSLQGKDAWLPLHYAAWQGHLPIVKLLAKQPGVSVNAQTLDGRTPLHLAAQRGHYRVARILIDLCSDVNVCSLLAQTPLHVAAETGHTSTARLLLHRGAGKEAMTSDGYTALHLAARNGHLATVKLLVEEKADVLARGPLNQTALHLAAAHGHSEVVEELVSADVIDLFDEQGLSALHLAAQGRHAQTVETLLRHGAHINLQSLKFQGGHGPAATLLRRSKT
CSK, sequence (P41240 whole entry, species assumed): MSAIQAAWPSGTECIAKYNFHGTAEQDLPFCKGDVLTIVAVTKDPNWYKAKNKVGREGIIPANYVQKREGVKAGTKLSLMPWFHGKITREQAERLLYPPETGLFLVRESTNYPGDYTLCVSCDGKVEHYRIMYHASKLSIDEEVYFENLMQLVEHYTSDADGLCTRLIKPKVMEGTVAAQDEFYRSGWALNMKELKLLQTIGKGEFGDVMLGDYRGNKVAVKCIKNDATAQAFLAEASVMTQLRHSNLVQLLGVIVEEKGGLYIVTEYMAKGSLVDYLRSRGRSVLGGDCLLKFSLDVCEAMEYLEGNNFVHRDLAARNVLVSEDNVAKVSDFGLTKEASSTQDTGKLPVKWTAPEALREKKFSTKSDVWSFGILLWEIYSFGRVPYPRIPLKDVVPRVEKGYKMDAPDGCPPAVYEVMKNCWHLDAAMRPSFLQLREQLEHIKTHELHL
CK1G1, sequence (Q9HCP0 whole entry): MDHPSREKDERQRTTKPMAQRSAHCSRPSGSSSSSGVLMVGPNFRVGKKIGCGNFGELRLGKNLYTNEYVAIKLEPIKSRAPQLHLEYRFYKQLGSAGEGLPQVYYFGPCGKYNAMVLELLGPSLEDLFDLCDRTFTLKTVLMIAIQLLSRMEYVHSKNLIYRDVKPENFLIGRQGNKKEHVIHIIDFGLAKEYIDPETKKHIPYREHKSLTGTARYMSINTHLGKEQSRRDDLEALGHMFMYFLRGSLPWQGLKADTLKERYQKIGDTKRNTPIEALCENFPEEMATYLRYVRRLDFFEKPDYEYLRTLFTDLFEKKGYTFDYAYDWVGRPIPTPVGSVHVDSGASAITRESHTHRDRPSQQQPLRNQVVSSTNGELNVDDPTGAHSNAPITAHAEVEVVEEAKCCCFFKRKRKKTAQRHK

SMILES	remaining activity at 1 µM [1] [%]	remaining activity at 1 µM [2] [%]	remaining activity at 1 µM [3] [%]	remaining activity at 1 µM [4] [%]	remaining activity at 1 µM [5] [%]	remaining activity at 1 µM [6] [%]	remaining activity at 1 µM [8] [%]	remaining activity at 1 µM [9] [%]	remaining activity at 1 µM [10] [%]	remaining activity at 1 µM [11] [%]	remaining activity at 1 µM [12] [%]	remaining activity at 1 µM [13] [%]	remaining activity at 1 µM [14] [%]	remaining activity at 1 µM [15] [%]	remaining activity at 1 µM [16] [%]	remaining activity at 1 µM [18] [%]	remaining activity at 1 µM [19] [%]	remaining activity at 1 µM [20] [%]	remaining activity at 1 µM [22] [%]	remaining activity at 1 µM [23] [%]	also measured
Cc1cn(-c2cc(C(=O)Nc3ccc(C)c(N4Cc5cnc(NC6CC6)nc5C5(CC5)C4=O)c3)cc(C(F)(F)F)c2)cn1 [Compound 8, N-(3-(2'-(cyclopropylamino)-7'-oxo-5'H-spiro[cyclopropane-1,8'-pyrido[4,3-d]pyrimidine]-6'(7'H)-yl)-4-methylphenyl)-3-(4-methyl-1H-imidazol-1-yl)-5-(trifluoromethyl)benzamide]	≤ 40	> 40	> 40	> 40	> 40	> 40	≤ 40	> 40	> 40	> 40	> 40	> 40	> 40	> 40	> 40	> 40	> 40	> 40	≤ 40	> 40	remaining activity at 1 µM ([7]; CAMK1D): > 40%; remaining activity at 1 µM ([17]; CK1G1, 1 µM): > 40%; remaining activity at 1 µM ([21]; CDK5/P35, 1 µM): > 40%; remaining activity at 1 µM [24]: > 40%; remaining activity at 1 µM [25]: > 40%; remaining activity at 1 µM [26]: > 40%; remaining activity at 1 µM [27]: > 40%; remaining activity at 1 µM [28]: > 40%; remaining activity at 1 µM [29]: ≤ 40%; remaining activity at 1 µM [30]: > 40%; remaining activity at 1 µM [31]: ≤ 40%; remaining activity at 1 µM [32]: ≤ 40%; remaining activity at 1 µM [33]: ≤ 40%; remaining activity at 1 µM [34]: > 40%
Cc1ccc(Nc2ncc3c(n2)C2(CC2)C(=O)N(c2cc(NC(=O)c4cccc(C(F)(F)F)c4)ccc2C)C3)cn1 [Compound 51, N-(4-methyl-3-(2'-((6-methylpyridin-3-yl)amino)-7'-oxo-5'H-spiro[cyclopropane-1,8'-pyrido[4,3-d]pyrimidine]-6'(7'H)-yl)phenyl)-3-(trifluoromethyl)benzamide]	≤ 40	> 40	> 40	> 40	> 40	> 40	≤ 40	> 40	> 40	> 40	> 40	> 40	> 40	> 40	> 40	> 40	> 40	> 40	≤ 40	> 40	remaining activity at 1 µM ([7]; CAMK1d): > 40%; remaining activity at 1 µM ([17]; CK1g1, 1 µM): > 40%; remaining activity at 1 µM ([21]; CDK5/p35, 1 µM): > 40%; remaining activity at 1 µM [24]: > 40%; remaining activity at 1 µM [25]: > 40%; remaining activity at 1 µM [26]: > 40%; remaining activity at 1 µM [27]: > 40%; remaining activity at 1 µM [28]: > 40%; remaining activity at 1 µM [29]: ≤ 40%; remaining activity at 1 µM [30]: > 40%; remaining activity at 1 µM [31]: ≤ 40%; remaining activity at 1 µM [32]: ≤ 40%; remaining activity at 1 µM [33]: ≤ 40%; remaining activity at 1 µM [34]: > 40%
